The target of the assay is T1, SOS1 (Homo sapiens, UniProt Q07889).
T1 sequence (Q07889 1-1333): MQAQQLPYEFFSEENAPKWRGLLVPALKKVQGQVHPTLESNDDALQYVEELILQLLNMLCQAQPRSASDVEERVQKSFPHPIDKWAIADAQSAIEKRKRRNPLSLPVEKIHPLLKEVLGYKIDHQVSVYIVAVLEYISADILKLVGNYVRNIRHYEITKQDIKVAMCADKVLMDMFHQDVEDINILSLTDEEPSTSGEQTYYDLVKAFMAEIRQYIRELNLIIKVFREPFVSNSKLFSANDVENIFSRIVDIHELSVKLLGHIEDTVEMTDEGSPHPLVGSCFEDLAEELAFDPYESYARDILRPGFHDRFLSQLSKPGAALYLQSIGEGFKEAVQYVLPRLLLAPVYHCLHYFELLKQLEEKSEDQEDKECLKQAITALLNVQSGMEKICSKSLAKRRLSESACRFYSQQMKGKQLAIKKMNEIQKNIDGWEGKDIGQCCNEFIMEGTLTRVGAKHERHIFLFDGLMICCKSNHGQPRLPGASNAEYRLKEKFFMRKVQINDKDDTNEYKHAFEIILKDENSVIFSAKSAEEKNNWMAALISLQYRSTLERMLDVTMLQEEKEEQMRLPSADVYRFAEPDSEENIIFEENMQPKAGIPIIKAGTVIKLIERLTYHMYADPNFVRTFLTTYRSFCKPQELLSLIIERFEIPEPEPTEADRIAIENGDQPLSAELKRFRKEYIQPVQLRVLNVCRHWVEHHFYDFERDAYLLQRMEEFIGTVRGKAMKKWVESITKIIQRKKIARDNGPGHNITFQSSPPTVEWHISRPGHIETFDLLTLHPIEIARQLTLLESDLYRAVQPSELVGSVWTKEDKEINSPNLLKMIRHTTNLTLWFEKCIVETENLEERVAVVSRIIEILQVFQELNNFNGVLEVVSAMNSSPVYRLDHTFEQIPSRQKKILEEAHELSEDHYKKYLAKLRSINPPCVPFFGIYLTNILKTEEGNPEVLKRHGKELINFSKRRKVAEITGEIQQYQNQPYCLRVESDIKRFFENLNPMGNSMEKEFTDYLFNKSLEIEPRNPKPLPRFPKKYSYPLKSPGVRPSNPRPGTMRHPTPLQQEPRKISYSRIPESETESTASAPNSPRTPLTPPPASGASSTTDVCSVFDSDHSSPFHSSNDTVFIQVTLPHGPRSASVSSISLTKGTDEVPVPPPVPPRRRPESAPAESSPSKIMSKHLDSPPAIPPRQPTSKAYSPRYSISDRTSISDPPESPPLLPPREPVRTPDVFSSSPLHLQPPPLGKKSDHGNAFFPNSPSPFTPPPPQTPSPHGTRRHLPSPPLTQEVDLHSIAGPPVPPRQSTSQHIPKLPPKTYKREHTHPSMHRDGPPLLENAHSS
Put plainly: Immunohistochemical staining of SOS1 on CRC patient-derived organoids. Format: cell-based. On the set-up: endogenous in cells; host or cells: CRC patient-derived organoids MCC19990-002, MCC19990-010, MCC19990-013. The note with it: MCC19990-002, MCC19990-010, MCC19990-013 PDOs, 1 μM, 24 hours, vs DMSO. The protocol: To one or two confluent wells of organoids was added 1:5 diluted 500 μL of 5 units/mL dispase in HBSS (StemCell: 07913) and incubated at 37° C. in 5% CO2 atmosphere. Organoids were harvested and transferred to a 1.5 mL Eppendorf tube. The pellet was collected after centrifugation at 1500 rpm for 6 min, and washed with 1×PBS. The pellet was resuspended in 1 mL of 4% PFA and incubated at 4° C. overnight. The pellet was resuspended in 100 μL of 37° C. warmed histogel, centrifuged at 1000 rpm for 30 seconds to settle the organoids. The gel was allowed to polymerize at 4° C. for 10 minutes and then the plug was transferred to a 5 mL tube containing 2 mL 70% ethanol, and sent to the histology lab. Organoids were paraffin-embedded and subjected to serial sections for hematoxylin and eosin staining and immunohistochemistry following a common procedure at the histology lab. The slides/sections were cut at 4 micron thickness using a Leica RM2245 microtome. Charged slides were used.
Immunohistochemical staining of SOS1 on organoids: Slides were stained using a Ventana Discovery Ultra automated system (Ventana Medical Systems, Tucson, AZ) as per manufacturer's protocol with proprietary reagents. Briefly, slides were deparaffinized on the automated system with Discovery Wash Solution (Ventana). Heat-induced antigen retrieval method was used in Cell Conditioning 1 Mild (Ventana). […]

On to `COc1cc2c(N[C@H](C)c3cc(N)cc(C(F)(F)F)c3)nc(C)nc2cc1OCC(=O)Nc1cccc2c1CN(C1CCC(=O)NC1=O)C2=O` (stereo partly drawn) [P7, 2-((4-(((R)-1-(3-amino-S-(trifluoromethyl)phenyl)ethyl)amino)-6-methoxy-2-methylquinazolin-7-yl)oxy)-N-(2-(2,6-dioxopiperidin-3-yl)-1-oxoisoindolin-4-yl)acetamide], for which the “SOS1 expression by IHC (SOS1 degradation)” value is on record as “significant SOS1 degradation at varying degrees”.

These data come from US20260085058A1, “DEGRADERS OF SON OF SEVENLESS HOMOLOG 1” (H. LEE MOFFITT CANCER CENTER AND RESEARCH INSTITUTE, INC., priority 2022, published 2026).
